The values below come from ChEMBL document CHEMBL1125524, “Adenosine A1 antagonists. 2. Structure-activity relationships on diuretic activities and protective effects against acute renal failure” (J Med Chem, 1992).

The test system of assay [1] is Rattus norvegicus. Nature of the assay: Urea nitrogen concentration measured after intraperitoneal administration of 1 mg/kg of compound to rats(vehicle 182.5+/-3.4). The format is functional.
The subject of assay [2] is Rattus norvegicus. Nature of the assay: Oral diuretic activity was measured after oral administration of 25 mg/kg to rats(control volume is […]+/-[…]). The format is functional, Urine.
In assay [3] the test system is Rattus norvegicus. Put plainly: Ratio of urinary excretion value (urinary volume) in treated rats to that in control rats, at a peroral dose of 25 mg/Kg. The assay is classed as functional, Urine.
Assay [4] has as its target T1, Adenosine receptor A1 (Rattus norvegicus, UniProt P25099).
T1 sequence (P25099 whole entry): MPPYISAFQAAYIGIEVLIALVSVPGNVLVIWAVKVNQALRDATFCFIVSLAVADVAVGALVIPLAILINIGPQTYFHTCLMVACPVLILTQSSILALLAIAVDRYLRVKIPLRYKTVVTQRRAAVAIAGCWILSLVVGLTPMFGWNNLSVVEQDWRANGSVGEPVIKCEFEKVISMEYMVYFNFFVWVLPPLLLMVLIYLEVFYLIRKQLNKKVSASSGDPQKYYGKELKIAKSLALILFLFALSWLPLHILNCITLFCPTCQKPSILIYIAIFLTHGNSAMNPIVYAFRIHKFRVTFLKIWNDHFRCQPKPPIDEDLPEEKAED
Description: Binding affinity towards adenosine A1 receptor in rat forebrain membranes using N6-[3H]cyclohexyladenosine

Assay [5] relates to Rattus norvegicus. Nature of the assay: Percent inhibition of serum creatinine by the compound given as ratio of Cr value in treated to vehicle treated ones after intraperitoneal administration of 1 mg/kg of compound to rats(vehicle 5.43+/-0.11). To be noted: ip. The assay is classed as functional.
Assay [6] relates to Rattus norvegicus. Nature of the assay: Ratio of urinary excretion value (Na+ concentration) in treated rats to that in control rats, at a peroral dose of 1.6 mg/Kg. The assay is classed as functional, Urine.
Assay [7] has as its system Rattus norvegicus. Put plainly: Ratio of urinary excretion value (urinary volume) in treated rats to that in control rats, at a peroral dose of 6.25 mg/Kg. The format is functional, Urine.
Assay [8] has as its system Rattus norvegicus. Put plainly: Percent inhibition of Urea nitrogen by the compound given as ratio of UN value in treated to vehicle treated ones after intraperitoneal administration of 1 mg/kg of compound to rats(vehicle 182.5+/-3.4). To be noted: ip. The assay is classed as functional.
The test system of assay [9] is Rattus norvegicus. Nature of the assay: Ratio of urinary excretion value (urinary volume) in treated rats to that in control rats, at a peroral dose of 0.4 mg/Kg. The assay is classed as functional, Urine.
The subject of assay [10] is Rattus norvegicus. Nature of the assay: Serum creatinine concentration measured after intraperitoneal administration of 1 mg/kg of compound to rats(vehicle 5.43+/-0.11). The format is functional.
In assay [11] the test system is Rattus norvegicus. Nature of the assay: Effect on urinary excretion potassium and sodium after oral administration of 25 mg/kg to rats(potassium and sodium excretion in control rat is […]+/-[…]). The format is functional, Urine.
The next assay addresses Adenosine A2 receptor (Rattus norvegicus, UniProt P29276+P30543).
Assay [12] relates to Rattus norvegicus. Nature of the assay: Ratio of sodium ion/potassium ion concentration in treated rats to that in control rats, at a peroral dose of 1.6 mg/Kg. The format is functional.
Assay [13] concerns Rattus norvegicus. Nature of the assay: Effect on urinary excretion potassium and sodium after oral administration of 1.6 mg/kg to rats(potassium and sodium excretion in control rat is 0.122+/-0.008). The assay is classed as functional, Urine.
Assay [14] deals with Rattus norvegicus. Put plainly: Ratio of sodium ion/potassium ion concentration in treated rats to that in control rats, at a peroral dose of 0.4 mg/Kg. The assay is classed as functional.
The subject of assay [15] is Rattus norvegicus. Put plainly: Effect on urinary excretion potassium and sodium after oral administration of 0.4 mg/kg to rats(potassium and sodium excretion in control rat is 0.175+/-0.014). The assay is classed as functional, Urine.
For assay [16], the system named is Rattus norvegicus. Put plainly: Ratio of urinary excretion value (Na+ concentration) in treated rats to that in control rats, at a peroral dose of 6.25 mg/Kg. The format is functional, Urine.
Assay [17] relates to Rattus norvegicus. Put plainly: Ratio of sodium ion/potassium ion concentration in treated rats to that in control rats, at a peroral dose of 25 mg/Kg. The format is functional.
In assay [18] the test system is Rattus norvegicus. Put plainly: Ratio of urinary excretion value (Na+ concentration) in treated rats to that in control rats, at a peroral dose of 0.4 mg/Kg. The format is functional, Urine.
Assay [19] concerns Rattus norvegicus. Put plainly: Ratio of urinary excretion value (Na+ concentration) in treated rats to that in control rats, at a peroral dose of 25 mg/Kg. The format is functional, Urine.
Assay [20] has as its system Rattus norvegicus. Put plainly: Ratio of urinary excretion value (urinary volume) in treated rats to that in control rats, at a peroral dose of 1.6 mg/Kg. The format is functional, Urine.
Assay [21] has as its system Rattus norvegicus. Nature of the assay: Oral diuretic activity was measured after oral administration of 1.6 mg/kg to rats(control volume is 0.83+/-0.07). The format is functional, Urine.
In assay [22] the test system is Rattus norvegicus. Nature of the assay: Oral diuretic activity was measured after oral administration of 0.4 mg/kg to rats(control volume is 0.94+/-0.03). The assay is classed as functional, Urine.
Assay [23] deals with Rattus norvegicus. Nature of the assay: Percent inhibition of serum creatinine by the compound given as ratio of Cr value in treated to vehicle treated ones after intraperitoneal administration of 1 mg/kg of compound to rats(vehicle 4.41+/-0.17). The format is functional. The settings on record: ip.
The subject of assay [24] is Rattus norvegicus. Nature of the assay: Urea nitrogen concentration measured after intraperitoneal administration of 1 mg/kg of compound to rats(vehicle 147.9+/-6.1). The assay is classed as functional.
For assay [25], the system named is Rattus norvegicus. Put plainly: Effect on urinary excretion potassium and sodium after oral administration of 25 mg/kg to rats(potassium and sodium excretion in control rat is 0.252+/-0.022). The assay is classed as functional, Urine.
For assay [26], the system named is Rattus norvegicus. Nature of the assay: Effect on urinary excretion potassium and sodium after oral administration of 0.4 mg/kg to rats(potassium and sodium excretion in control rat is 0.261+/-0.0087). The format is functional, Urine.
The test system of assay [27] is Rattus norvegicus. Nature of the assay: Percent inhibition of Urea nitrogen by the compound given as ratio of UN value in treated to vehicle treated ones after intraperitoneal administration of 1 mg/kg of compound to rats(vehicle 147.9+/-6.1). The format is functional. To be noted: ip.
The test system of assay [28] is Rattus norvegicus. Put plainly: Oral diuretic activity was measured after oral administration of 0.4 mg/kg to rats(control volume is […]+/-[…]). The format is functional, Urine.
Assay [29] has as its system Rattus norvegicus. Put plainly: Serum creatinine concentration measured after intraperitoneal administration of 1 mg/kg of compound to rats(vehicle 4.41+/-0.17). The format is functional.
For assay [30], the target named is T2, Adenosine receptor A1 (Cavia porcellus, UniProt P47745).
T2 sequence (P47745 whole entry): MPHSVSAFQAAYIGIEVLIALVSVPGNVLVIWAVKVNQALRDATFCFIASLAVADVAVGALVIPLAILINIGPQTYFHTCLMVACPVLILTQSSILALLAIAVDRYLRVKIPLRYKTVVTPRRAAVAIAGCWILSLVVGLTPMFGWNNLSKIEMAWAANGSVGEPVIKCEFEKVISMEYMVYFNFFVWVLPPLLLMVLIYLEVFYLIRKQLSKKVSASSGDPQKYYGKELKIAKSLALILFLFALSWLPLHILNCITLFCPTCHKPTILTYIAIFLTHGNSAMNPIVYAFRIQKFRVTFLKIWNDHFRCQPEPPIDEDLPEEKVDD
Description: Binding affinity against adenosine A1 receptor in guinea pig forebrain membranes using N6-[3H]cyclohexyladenosine as radioligand

For orientation: Ki means a measure of affinity in units of concentration, obtained from inhibition or displacement. The low end stands for higher affinity, the high end for lower affinity. By inhibition in vivo is commonly meant the percentage by which the read-out fell short of the control. Consider `CCCn1c(=O)c2nc(C(C3CC3)C3CC3)[nH]c2n(CCC)c1=O`, for which, in the assay on Rattus norvegicus [1], the UN turned out to be 107.6 mg/dL. Further, the Urine volume with Rattus norvegicus [2] was 2.07 ml 6hr-1 100g-1; with Rattus norvegicus [21], 1.83 ml 6hr-1 100g-1; with Rattus norvegicus [22], 1.25 ml 6hr-1 100g-1. For the same compound, the T/C was 2.44 with Rattus norvegicus [3]; 2.33 in the assay with Rattus norvegicus [6]; 2.39 with Rattus norvegicus [7]; 1.33 in the assay with Rattus norvegicus [9]; 2.69 with Rattus norvegicus [16]; 1.45 with Rattus norvegicus [18]. The T/C in the assay with Rattus norvegicus [19] is 2.16; in the assay on Rattus norvegicus [20], 2.2. In addition, the Ki on Adenosine receptor A1 [4] came out at 0.99 nM; on Adenosine A2 receptor, 430 nM. Further, the inhibition in vivo at 1 mg/kg came to 45% in the assay on Rattus norvegicus [5] and 41% with Rattus norvegicus [8]. Further, the Cr in the assay with Rattus norvegicus [10] was 5.43 mg/dL. Besides, the Na with Rattus norvegicus [11] was 0.35 m equiv 6hr-1 100g-1; in the assay with Rattus norvegicus [13], 0.284 m equiv 6hr-1 100g-1; in the assay with Rattus norvegicus [15], 0.255 m equiv 6hr-1 100g-1. In addition, the entries for the “Na+/K+” value in the assay on Rattus norvegicus [12], in the assay on Rattus norvegicus [14] and in the assay on Rattus norvegicus [17] were 1.56, 1.27 and 1.71, respectively.
For the compound `CCCn1c(=O)c2nc(C3CC4C=CC3C4)[nH]c2n(CCC)c1=O` (stereo in doubt; 17), the inhibition in vivo at 1 mg/kg was 53% in the assay on Rattus norvegicus [23] and 56% in the assay with Rattus norvegicus [27]. In the assay with Rattus norvegicus [24], this compound displayed a UN of 80.4 mg/dL. Further, the Na in the assay with Rattus norvegicus [25] worked out at 0.434 m equiv 6hr-1 100g-1; in the assay on Rattus norvegicus [26] it was 0.233 m equiv 6hr-1 100g-1. Moreover, the Urine volume in the assay on Rattus norvegicus [2] is listed as 2.47 ml 6hr-1 100g-1; with Rattus norvegicus [28], 1.32 ml 6hr-1 100g-1. The T/C with Rattus norvegicus [3] was 2.06; in the assay on Rattus norvegicus [7], 2.56; with Rattus norvegicus [9] it was 0.93; in the assay on Rattus norvegicus [16], 2.51; with Rattus norvegicus [18] it was 0.89; in the assay with Rattus norvegicus [19], 1.72. Further, the figures for the Ki at Adenosine A2 receptor and on Adenosine receptor A1 [30] were 480 nM and 4.3 nM, respectively. Also, the “Na+/K+” value with Rattus norvegicus [14] was found to be 0.98. In the assay with Rattus norvegicus [29], this compound gave a Cr of 2.08 mg/dL.
